Paper PMC6627374, “Effects of the Pentapeptide P33 on Memory and Synaptic Plasticity in APP/PS1 Transgenic Mice: A Novel Mechanism Presenting the Protein Fe65 as a Target” (International Journal of Molecular Sciences, 2019)
Where a SMILES comes first, the peptide text is derived from it.

Test system: Iba1-positive microglia
Assay: Iba1 immunohistochemistry, microglia density
Assay type: in vivo, mouse
Conditions: APP/PS1-vehicle vs. WT-vehicle, WT-P33, APP/PS1-P33; HC and CTX; 5 mg∙kg^−1 i.p., six months
Description: For this study, three-month-old male and female WT and APP/PS1 mice (n = 37) were used. Four groups were defined: WT-vehicle (physiological saline) (male n = 4; female n = 6), WT-P33 (male n = 6; female n = 5), APP/PS1-vehicle (male n = 3; female n = 5), and APP/PS1-P33 (male n = 6; female n = 2). Animals were subjected to intraperitoneal (i.p.) injections of P33 (5 mg∙kg^−1) for five days per week, over a course of six months. The mice were kept in groups under constant temperature (23 ± 0.5 °C), lighting (12-h/12-h light/dark cycle, lights on at 7:00 a.m.), and humidity (~50%). Standard mouse chow and tap water were supplied ad libitum. All behavioral experiments were performed in the light period. Handling was done daily at the same time.
Mice (five animals per group) were anaesthetized with chloral-hydrate (1 mg∙kg^−1) and perfused transcardially with PBS, followed by ice-cold 4% paraformaldehyde. The brains were removed, post-fixed in the same fixative, and immersed in a 30% sucrose solution containing 0.01% sodium-azide. […]
Slides were scanned by a digital slide scanner (Mirax Midi, 3DHistech Ltd., Budapest, Hungary), equipped with a Pannoramic Viewer 1.15.4, CaseViewer 2.1 program and a QuantCenter, HistoQuant module (3DHistech Ltd., Budapest, Hungary). For quantification, all of the sections were analyzed. […] Antibody-positive cell types from the ROIs were counted and quantified. […]

SMILES: C[C@@H](N)C(=O)N1CCC[C@@H]1C(=O)N[C@H](C)C(=O)N1CCC[C@@H]1C(=O)N[C@H](CCC(=O)O)C(N)=O [P33] (HELM PEPTIDE1{[dA].[dP].[dA].[dP].[dE].[am]}$$$$V2.0)
- density of Iba1-positive microglia (in words): higher in the APP/PS1-vehicle treated mice than in the other groups
